From ChEMBL document CHEMBL1201861, “Genomics of Drug Sensitity in Cancer screening data, Wellcome Trust Sanger Institute”
Where “and” joins values, the source holds several entries; their conditions need not be identical. Identical values can stand only once. Where a SMILES comes first, the peptide text is derived from it. The star is where a group is joined. Cbz = O=C(OCc1ccccc1)*

Legend:
Test in all cases: cells
ES3 = format: functional, cell-based, Homo sapiens;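 also: growth inhibition of ES3 cells, read out with a cell viability assay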
Description: SANGER: Inhibition of human ES3 cell growth in a cell viability assay.

TE-5 = format: functional, cell-based, Homo sapiens;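 also: inhibition of cell growth, read out by a cell viability assay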
Description: SANGER: Inhibition of human TE-5 cell growth in a cell viability assay.

SK-N-DZ = format: functional, cell-based, Homo sapiens; conditions: read-out: IC50;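 also: growth inhibition of the cancer cell line, read out through a viability assay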
Description: SANGER: Inhibition of human SK-N-DZ cell growth in a cell viability assay.

MLMA = format: functional, cell-based, Homo sapiens;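 also: growth inhibition of MLMA cells (human), determined through a cell viability readout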
Description: SANGER: Inhibition of human MLMA cell growth in a cell viability assay.

HAL-01 = format: functional, cell-based, Homo sapiens;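 also: growth inhibition of human HAL-01 cells, read out with a cell viability assay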
Description: SANGER: Inhibition of human HAL-01 cell growth in a cell viability assay.

SK-LMS-1 = format: functional, cell-based, Homo sapiens;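 also: growth inhibition of human SK-LMS-1 cells, read out with a cell viability assay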
Description: SANGER: Inhibition of human SK-LMS-1 cell growth in a cell viability assay.

MOLT-4 = format: functional, cell-based, Homo sapiens;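 also: growth inhibition of MOLT-4 cells, determined with a cell viability readout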
Description: SANGER: Inhibition of human MOLT-4 cell growth in a cell viability assay.

EW-18 = format: functional, cell-based, Homo sapiens; conditions: read-out: IC50;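 also: growth inhibition of EW-18 cells, read out by a cell viability assay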
Description: SANGER: Inhibition of human EW-18 cell growth in a cell viability assay.

GI-1 = format: functional, cell-based, Homo sapiens;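 also: growth inhibition of human GI-1 cells, measured with a cell viability readout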
Description: SANGER: Inhibition of human GI-1 cell growth in a cell viability assay.

JAR = format: functional, cell-based, Homo sapiens;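 also: growth inhibition of human JAR cells determined with a cell viability assay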
Description: SANGER: Inhibition of human JAR cell growth in a cell viability assay.

NCI-H226 = format: functional, cell-based, Homo sapiens;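 also: cell viability read-out used to gauge growth inhibition of the cells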
Description: SANGER: Inhibition of human NCI-H226 cell growth in a cell viability assay.

SK-PN-DW = format: functional, cell-based, Homo sapiens;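 also: growth inhibition measured with a viability assay on these cells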
Description: SANGER: Inhibition of human SK-PN-DW cell growth in a cell viability assay.

C2BBe1 = format: functional, cell-based, Homo sapiens;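 also: growth inhibition of C2BBe1 cells, read out through a viability assay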
Description: SANGER: Inhibition of human C2BBe1 cell growth in a cell viability assay.

TE-1 = format: functional, cell-based, Homo sapiens;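 also: growth inhibition of the human TE-1 cell line, read out with a cell viability assay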
Description: SANGER: Inhibition of human TE-1 cell growth in a cell viability assay.

A101D = format: functional, cell-based, Homo sapiens;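 also: growth inhibition of the cell line, measured with a viability assay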
Description: SANGER: Inhibition of human A101D cell growth in a cell viability assay.

KG-1 = format: functional, cell-based, Homo sapiens;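 also: growth inhibition of KG-1 cells, read out by a cell viability assay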
Description: SANGER: Inhibition of human KG-1 cell growth in a cell viability assay.

ACN = format: functional, cell-based, Homo sapiens;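 also: growth inhibition of the human ACN cell line, read out via cell viability testing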
Description: SANGER: Inhibition of human ACN cell growth in a cell viability assay.

SJSA-1 = format: functional, cell-based, Homo sapiens;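 also: growth inhibition of human SJSA-1 cells, read out through a cell viability measurement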
Description: SANGER: Inhibition of human SJSA-1 cell growth in a cell viability assay.

LS-513 = format: functional, cell-based, Homo sapiens
Description: SANGER: Inhibition of human LS-513 cell growth in a cell viability assay.

MPP-89 = format: functional, cell-based, Homo sapiens;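 also: growth inhibition of human MPP-89 cells, read out with a cell viability assay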
Description: SANGER: Inhibition of human MPP-89 cell growth in a cell viability assay.

HD-MY-Z = format: functional, cell-based, Homo sapiens;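 also: growth inhibition of HD-MY-Z cells, read out with a cell viability assay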
Description: SANGER: Inhibition of human HD-MY-Z cell growth in a cell viability assay.

NCI-H23 = format: functional, cell-based, Homo sapiens;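 also: cell viability assay measuring growth inhibition of NCI-H23 cells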
Description: SANGER: Inhibition of human NCI-H23 cell growth in a cell viability assay.

LOX IMVI = format: functional, cell-based, Homo sapiens
Description: SANGER: Inhibition of human LOXIMVI cell growth in a cell viability assay.

RH-1 = format: functional, cell-based, Homo sapiens;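 also: growth inhibition of human RH-1 cells, read out with a cell viability assay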
Description: SANGER: Inhibition of human RH-1 cell growth in a cell viability assay.

BE-13 = format: functional, cell-based, Homo sapiens;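 also: growth inhibition of human BE-13 cells, measured with a cell viability assay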
Description: SANGER: Inhibition of human BE-13 cell growth in a cell viability assay.

QIMR-WIL = format: functional, cell-based, Homo sapiens;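 also: growth inhibition of QIMR-WIL cells, read out with a cell viability assay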
Description: SANGER: Inhibition of human QIMR-WIL cell growth in a cell viability assay.

MFM-223 = format: functional, cell-based, Homo sapiens
Description: SANGER: Inhibition of human MFM-223 cell growth in a cell viability assay.

BV-173 = format: functional, cell-based, Homo sapiens
Description: SANGER: Inhibition of human BV-173 cell growth in a cell viability assay.

IA-LM = format: functional, cell-based; conditions: Homo sapiens;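 also: cell viability assay measuring growth inhibition of human IA-LM cells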
Description: SANGER: Inhibition of human IA-LM cell growth in a cell viability assay.

MZ7-mel = format: functional, cell-based, Homo sapiens;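 also: growth inhibition of human MZ7-mel cells, measured by a cell viability assay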
Description: SANGER: Inhibition of human MZ7-mel cell growth in a cell viability assay.

NCI-H1838 = format: functional, cell-based, Homo sapiens;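 also: growth inhibition of NCI-H1838 cells, determined with a cell viability readout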
Description: SANGER: Inhibition of human NCI-H1838 cell growth in a cell viability assay.

NH-12 = format: functional, cell-based, Homo sapiens;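 also: growth inhibition of NH-12 cells, read out with a cell viability assay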
Description: SANGER: Inhibition of human NH-12 cell growth in a cell viability assay.

KE-37 = format: functional, cell-based, Homo sapiens;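 also: growth inhibition of KE-37 cells, read out with a cell viability assay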
Description: SANGER: Inhibition of human KE-37 cell growth in a cell viability assay.

LAMA-84 = format: functional, cell-based, Homo sapiens;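 also: growth inhibition of LAMA-84 cells, read out with a cell viability assay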
Description: SANGER: Inhibition of human LAMA-84 cell growth in a cell viability assay.

SW 962 = format: functional, cell-based, Homo sapiens;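 also: growth inhibition of human SW962 cells, read out by a cell viability assay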
Description: SANGER: Inhibition of human SW962 cell growth in a cell viability assay.

KLE = format: functional, cell-based; conditions: Homo sapiens;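 also: growth inhibition of human KLE cells, read out with a cell viability assay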
Description: SANGER: Inhibition of human KLE cell growth in a cell viability assay.

SF-126 = format: functional, cell-based, Homo sapiens;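 also: growth inhibition of human SF126 cells, read out with a cell viability assay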
Description: SANGER: Inhibition of human SF126 cell growth in a cell viability assay.

Lu-65 = format: functional, cell-based, Homo sapiens;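 also: growth inhibition of Lu-65 cancer cells, read out by a cell viability assay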
Description: SANGER: Inhibition of human LU-65 cell growth in a cell viability assay.

NB13 = format: functional, cell-based, Homo sapiens;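 also: cell viability readout measuring growth inhibition of human NB13 cells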
Description: SANGER: Inhibition of human NB13 cell growth in a cell viability assay.

AM-38 = format: functional, cell-based, Homo sapiens;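 also: growth inhibition of AM-38 cells of human origin, read out by a cell viability assay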
Description: SANGER: Inhibition of human AM-38 cell growth in a cell viability assay.

DSH1 = format: functional, cell-based; conditions: Homo sapiens;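 also: growth inhibition of human DSH1 cells, measured with a cell viability readout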
Description: SANGER: Inhibition of human DSH1 cell growth in a cell viability assay.

ES1 = format: functional, cell-based, Homo sapiens
Description: SANGER: Inhibition of human ES1 cell growth in a cell viability assay.

KM12 = format: functional, cell-based, Homo sapiens;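 also: KM12 cell growth inhibition, read out with a cell viability assay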
Description: SANGER: Inhibition of human KM12 cell growth in a cell viability assay.

L-363 = format: functional, cell-based, Homo sapiens
Description: SANGER: Inhibition of human L-363 cell growth in a cell viability assay.

SHP77 = format: functional, cell-based, Homo sapiens, SHP-77;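 also: growth inhibition of human SHP-77 cells measured by a cell viability assay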
Description: SANGER: Inhibition of human SHP-77 cell growth in a cell viability assay.

A253 cell line = format: functional, cell-based, Homo sapiens;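 also: growth inhibition of A253 cells, read out with a cell viability assay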
Description: SANGER: Inhibition of human A253 cell growth in a cell viability assay.

SW684 = format: functional, cell-based, Homo sapiens; conditions: read-out: IC50;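 also: growth inhibition of human SW684 cells, measured by a cell viability assay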
Description: SANGER: Inhibition of human SW684 cell growth in a cell viability assay.

IST-MES1 = format: functional, cell-based, Homo sapiens;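 also: growth inhibition of IST-MES1 cells, measured with a cell viability assay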
Description: SANGER: Inhibition of human IST-MES1 cell growth in a cell viability assay.

CCRF-CEM = format: functional, cell-based, Homo sapiens;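 also: inhibition of CCRF-CEM cell growth, measured by a cell viability assay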
Description: SANGER: Inhibition of human CCRF-CEM cell growth in a cell viability assay.

EOL1 = format: functional, cell-based, Homo sapiens;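 also: growth inhibition of EoL-1 cells, read out by a cell viability assay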
Description: SANGER: Inhibition of human EoL-1-cell cell growth in a cell viability assay.

COc1cc(N2CCC(N3CCN(C)CC3)CC2)ccc1Nc1ncc(Cl)c(Nc2ccccc2S(=O)(=O)C(C)C)n1 [TAE-684]
IC50 (ES3; Homo sapiens, ES3): > 2000 nM | IC50 (TE-5; Homo sapiens, TE-5): > 2000 nM | IC50 (SK-N-DZ; Homo sapiens, SK-N-DZ): 1780 nM | IC50 (MLMA; Homo sapiens, MLMA): > 2000 nM | IC50 (HAL-01; Homo sapiens, HAL-01): 1150 nM | IC50 (SK-LMS-1; Homo sapiens, SK-LMS-1): 1160 nM | IC50 (MOLT-4; Homo sapiens, MOLT-4): > 2000 nM | IC50 (EW-18; Homo sapiens, EW-18): > 2000 nM | IC50 (GI-1; Homo sapiens, GI-1): 1100 nM | IC50 (JAR; Homo sapiens, JAR): > 2000 nM | IC50 (NCI-H226; Homo sapiens, NCI-H226): > 2000 nM | IC50 (SK-PN-DW; Homo sapiens, SK-PN-DW): 1260 nM | IC50 (C2BBe1; Homo sapiens, C2BBe1): 1290 nM | IC50 (TE-1; Homo sapiens, TE-1): 691 nM | IC50 (A101D; Homo sapiens, A101D): 1570 nM | IC50 (KG-1; Homo sapiens, KG-1): 396 nM | IC50 (ACN; Homo sapiens, ACN): > 2000 nM | IC50 (SJSA-1; Homo sapiens, SJSA-1): 637 nM | IC50 (LS-513; Homo sapiens, LS-513): > 2000 nM | IC50 (MPP-89; Homo sapiens, MPP-89): 579 nM | IC50 (HD-MY-Z; Homo sapiens, HD-MY-Z): > 2000 nM | IC50 (NCI-H23; Homo sapiens, NCI-H23): > 2000 nM | IC50 (LOX IMVI; Homo sapiens, LOX IMVI): > 2000 nM | IC50 (RH-1; Homo sapiens, RH-1): > 2000 nM | IC50 (BE-13; Homo sapiens, BE-13): > 2000 nM | IC50 (QIMR-WIL; Homo sapiens, QIMR-WIL): > 2000 nM | IC50 (MFM-223; Homo sapiens, MFM-223): > 2000 nM | IC50 (BV-173; Homo sapiens, BV-173): > 2000 nM | IC50 (IA-LM): > 2000 nM | IC50 (MZ7-mel; Homo sapiens, MZ7-mel): > 2000 nM | IC50 (NCI-H1838; Homo sapiens, NCI-H1838): > 2000 nM | IC50 (NH-12; Homo sapiens, NH-12): > 2000 nM | IC50 (KE-37; Homo sapiens, KE-37): > 2000 nM | IC50 (LAMA-84; Homo sapiens, LAMA-84): > 2000 nM | IC50 (SW 962; Homo sapiens, SW 962): 1560 nM | IC50 (KLE): > 2000 nM | IC50 (SF-126; Homo sapiens, SF-126): 1120 nM | IC50 (Lu-65; Homo sapiens, Lu-65): > 2000 nM | IC50 (NB13; Homo sapiens, NB13): 1370 nM | IC50 (AM-38; Homo sapiens, AM-38): > 2000 nM | IC50 (DSH1): > 2000 nM | IC50 (ES1; Homo sapiens, ES1): > 2000 nM | IC50 (KM12; Homo sapiens, KM12): > 2000 nM | IC50 (L-363; Homo sapiens, L-363): 824 nM | IC50 (SHP77; Homo sapiens, SHP77): > 2000 nM | IC50 (A253 cell line; Homo sapiens, A253): > 2000 nM | IC50 (SW684; Homo sapiens, SW684): > 2000 nM | IC50 (IST-MES1; Homo sapiens, IST-MES1): 988 nM | IC50 (CCRF-CEM; Homo sapiens, CCRF-CEM): > 2000 nM | IC50 (EOL1; Homo sapiens, EOL1): > 2000 nM

CC(C)C[C@@H](C=O)NC(=O)[C@H](CC(C)C)NC(=O)[C@H](CC(C)C)NC(=O)OCc1ccccc1 [MG-132] (Cbz-Leu-Leu-Leu-aldehyde)
IC50 (ES3; es3): > 1000 nM | IC50 (TE-5; te-5): 143 nM and > 1000 nM | IC50 (SK-N-DZ; sk-n-dz): > 1000 nM | IC50 (MLMA; mlma): > 1000 nM | IC50 (HAL-01; hal-01): > 1000 nM | IC50 (SK-LMS-1; sk-lms-1): 193 nM and > 1000 nM | IC50 (MOLT-4; molt-4): > 1000 nM | IC50 (EW-18; ew-18): > 1000 nM | IC50 (GI-1; gi-1): > 1000 nM | IC50 (JAR; jar): > 1000 nM | IC50 (NCI-H226; Homo sapiens, NCI-H226): > 1000 nM | IC50 (NCI-H226; nci-h226): > 1000 nM | IC50 (SK-PN-DW; sk-pn-dw): 232 nM and > 1000 nM | IC50 (C2BBe1; c2bbe1): 279 nM and > 1000 nM | IC50 (TE-1; te-1): 451 nM and > 1000 nM | IC50 (A101D; a101d): 32.8 nM and 301 nM | IC50 (KG-1; kg-1): > 1000 nM | IC50 (ACN; acn): 226 nM and > 1000 nM | IC50 (SJSA-1; Homo sapiens, SJSA-1): > 1000 nM | IC50 (SJSA-1; sjsa-1): > 1000 nM | IC50 (LS-513; ls-513): 668 nM and > 1000 nM | IC50 (MPP-89; mpp-89): > 1000 nM | IC50 (HD-MY-Z; hd-my-z): 233 nM and > 1000 nM | IC50 (NCI-H23; nci-h23): > 1000 nM | IC50 (LOX IMVI; Homo sapiens, LOX IMVI): > 1000 nM | IC50 (LOX IMVI; lox imvi): > 1000 nM | IC50 (RH-1; rh-1): > 1000 nM | IC50 (BE-13; be-13): > 1000 nM and 562 nM | IC50 (QIMR-WIL; qimr-wil): > 1000 nM | IC50 (MFM-223; mfm-223): > 1000 nM | IC50 (BV-173; bv-173): > 1000 nM | IC50 (IA-LM): > 1000 nM | IC50 (MZ7-mel; mz7-mel): 264 nM and > 1000 nM | IC50 (NCI-H1838; nci-h1838): > 1000 nM | IC50 (NH-12; nh-12): > 1000 nM | IC50 (KE-37; ke-37): 133 nM and 639 nM | IC50 (LAMA-84; lama-84): 219 nM and > 1000 nM | IC50 (SW 962; sw 962): > 1000 nM | IC50 (KLE): 313 nM | IC50 (SF-126; sf-126): 990 nM and > 1000 nM | IC50 (Lu-65; lu-65): > 1000 nM | IC50 (NB13; nb13): > 1000 nM | IC50 (AM-38; am-38): > 1000 nM | IC50 (ES1; es1): > 1000 nM | IC50 (KM12; km12): 855 nM and > 1000 nM | IC50 (L-363; Homo sapiens, L-363): > 1000 nM | IC50 (L-363; l-363): > 1000 nM | IC50 (SHP77; shp-77): > 1000 nM | IC50 (A253 cell line; a253): 161 nM and > 1000 nM | IC50 (SW684; sw684): > 1000 nM | IC50 (IST-MES1; ist-mes1): > 1000 nM | IC50 (CCRF-CEM; ccrf-cem): 477 nM and > 1000 nM | IC50 (EOL1; Homo sapiens, EOL1): > 1000 nM | IC50 (EOL1; eol1): > 1000 nM
